Experimental data taken from PMC8748916, “Microbial enzymes induce colitis by reactivating triclosan in the mouse gastrointestinal tract” (Nature Communications, 2022).
Values joined by “and” are separate entries in the source; they are usually repeats but may differ in a detail not shown here. Equal entries are not always repeated. Where two headings read alike, the source gives them in different places.

Key:
[1] = system: gut microbial β-glucuronidase (GUS) enzymes; experiment: In vitro UDH (coupled) assay of TCS-G cleavage by a panel of 32 purified GUS enzymes; type: biochemical
[2] = system: gut microbial β-glucuronidase (GUS) enzymes; experiment: Catalytic efficiency assay (HPLC) of TCS-G to TCS conversion by purified GUS enzymes; type: biochemical
[3] = system: Fp2-L1 GUS mutant proteins; experiment: Catalytic efficiency assay, wild-type and mutant Fp2-L1 GUS; type: biochemical, F. prausnitzii; conditions: Fig. 3h, replicates 1-3
Rh3 GUS mutants = experiment: Catalytic efficiency assay, wild-type and mutant Rh3 GUS; type: biochemical, R. hominis; conditions: Fig. 3j, replicates 1-3

O=C(O)C1OC(Oc2cc(Cl)ccc2Oc2ccc(Cl)cc2Cl)C(O)C(O)C1O (stereo not drawn) [TCS-G, triclosan-glucuronide]
Rate [1]: 0.1092 µM/s and 0.1031 µM/s and 0.1177 µM/s
Rate ([1]; GUS: Akkermansia muciniphila, Fig. 3a, replicates 1-3): 0.0108 µM/s and 0.0181 µM/s and 0.0194 µM/s
Rate ([1]; GUS: Akkermansia sp. CAG:344, Fig. 3a, replicates 1-3): 0.0157 µM/s and 0.0151 µM/s and 0.0237 µM/s
Rate ([1]; GUS: Bacteroides MSP (BMSP), Fig. 3a, replicates 1-3): 0.0000 µM/s and 0.0073 µM/s and 0.0072 µM/s
Rate ([1]; GUS: Bacteroides coprocola CAG: 126, Fig. 3a, replicates 1-3): 0.0000 uM/s (2×) and 0.0056 uM/s
Rate ([1]; GUS: Bacteroides dorei, Fig. 3a, replicates 1-3): 0.0000 µM/s
Rate ([1]; GUS: Bacteroides fragillis (1, mini loop), Fig. 3a, replicates 1-3): 0.0000 uM/s (2×) and 0.0043 uM/s
Rate ([1]; GUS: Bacteroides fragillis (2, No Loop), Fig. 3a, replicates 1-3): 0.0228 µM/s and 0.0242 µM/s and 0.0201 µM/s
Rate ([1]; GUS: Bacteroides ovatus 1 (Double mini loop), Fig. 3a, replicates 1-3): 0.0000 µM/s and 0.0060 µM/s and 0.0033 µM/s
Rate ([1]; GUS: Bacteroides ovatus 2 (loop 2), Fig. 3a, replicates 1-3): 0.0287 µM/s and 0.0311 µM/s and 0.0066 µM/s
Rate ([1]; GUS: Bacteroides uniformis 1, Fig. 3a, replicates 1-3): 0.0000 µM/s
Rate ([1]; GUS: Bacteroides uniformis 2, Fig. 3a, replicates 1-3): 0.0217 µM/s and 0.0464 µM/s and 0.0098 µM/s
Rate ([1]; GUS: Bacteroides uniformis 3, Fig. 3a, replicates 1-3): 0.0000 µM/s
Rate ([1]; GUS: Clostridiales sp., Fig. 3a, replicates 1-3): 0.2137 µM/s and 0.2298 µM/s and 0.2970 µM/s
Rate ([1]; GUS: Escherichia coli, Fig. 3a, replicates 1-3): 0.0775 µM/s and 0.0865 µM/s and 0.0858 µM/s
Rate ([1]; GUS: Eubacterium eligens, Fig. 3a, replicates 1-3): 0.1302 µM/s and 0.1403 µM/s and 0.1746 µM/s
Rate ([1]; GUS: Eubacterium sp. CAG: 76, Fig. 3a, replicates 1-3): 0.2371 µM/s and 0.2156 µM/s and 0.2776 µM/s
Rate ([1]; GUS: Faecalibacterium prausnitzii 2-L1, Fig. 3a, replicates 1-3): 0.4231 µM/s and 0.3684 µM/s and 0.3821 µM/s
Rate ([1]; GUS: Faecalibacterium prausnitzii L2-6, Fig. 3a, replicates 1-3): 0.2237 µM/s and 0.2529 µM/s and 0.1639 µM/s
Rate ([1]; GUS: Faecalibacterium prausnitzii, Fig. 3a, replicates 1-3): 0.1749 µM/s and 0.1228 µM/s and 0.2576 µM/s
Rate ([1]; GUS: Fusicatenibacter saccharivorans, Fig. 3a, replicates 1-3): 0.0089 µM/s and 0.0000 µM/s and 0.0052 µM/s
Rate ([1]; GUS: H11G11, Fig. 3a, replicates 1-3): 0.0684 µM/s and 0.0777 µM/s and 0.0864 µM/s
Rate ([1]; GUS: Lactobacillus rhamnosus, Fig. 3a, replicates 1-3): 0.0323 µM/s and 0.1224 µM/s and 0.1254 µM/s
Rate ([1]; GUS: Parabacteroides merdea, Fig. 3a, replicates 1-3): 0.0043 µM/s and 0.0011 µM/s and 0.0000 µM/s
Rate ([1]; GUS: Roseburia hominis 2, Fig. 3a, replicates 1-3): 0.0519 µM/s and 0.0527 µM/s and 0.0448 µM/s
Rate ([1]; GUS: Roseburia hominis 3, Fig. 3a, replicates 1-3): 0.4975 µM/s and 0.4668 µM/s and 0.4395 µM/s
Rate ([1]; GUS: Roseburia hominis, Fig. 3a, replicates 1-3): 0.0330 µM/s and 0.0266 µM/s and 0.0438 µM/s
Rate ([1]; GUS: Roseburia intestinalis, Fig. 3a, replicates 1-3): 0.0269 µM/s and 0.0251 µM/s and 0.0293 µM/s
Rate ([1]; GUS: Roseburia inulinvorans, Fig. 3a, replicates 1-3): 0.1707 µM/s and 0.1889 µM/s and 0.1974 µM/s
Rate ([1]; GUS: Ruminoccus gnavus 1, Fig. 3a, replicates 1-3): 0.0272 µM/s and 0.0287 µM/s and 0.0319 µM/s
Rate ([1]; GUS: Ruminoccus gnavus 3, Fig. 3a, replicates 1-3): 0.1417 µM/s and 0.1517 µM/s and 0.1712 µM/s
Rate ([1]; GUS: Streptococcus agalactiae, Fig. 3a, replicates 1-3): 0.0757 µM/s and 0.0745 µM/s and 0.0702 µM/s
Catalytic efficiency [2]: 221350 M⁻¹ s⁻¹ and 261200 M⁻¹ s⁻¹ and 185500 M⁻¹ s⁻¹
Catalytic efficiency ([2]; Enzyme: B. uniformis 2, Fig. 3b, replicates 1-3): 26480 M⁻¹ s⁻¹ and 25620 M⁻¹ s⁻¹ and 34030 M⁻¹ s⁻¹
Catalytic efficiency ([2]; Enzyme: Clostridiales sp., Fig. 3b, replicates 1-3): 421200 M⁻¹ s⁻¹ and 564000 M⁻¹ s⁻¹ and 643571 M⁻¹ s⁻¹
Catalytic efficiency ([2]; Enzyme: E. coli, Fig. 3b, replicates 1-3): 25610 M⁻¹ s⁻¹ and 27630 M⁻¹ s⁻¹ and 30620 M⁻¹ s⁻¹
Catalytic efficiency ([2]; Enzyme: E. eligens, Fig. 3b, replicates 1-3): 789000 M⁻¹ s⁻¹ and 987900 M⁻¹ s⁻¹ and 767700 M⁻¹ s⁻¹
Catalytic efficiency ([2]; Enzyme: Eubacterium sp. CAG: 76, Fig. 3b, replicates 1-3): 294800 M⁻¹ s⁻¹ and 499700 M⁻¹ s⁻¹ and 451000 M⁻¹ s⁻¹
Catalytic efficiency ([2]; Enzyme: F. prausnitzii 2-L1, Fig. 3b, replicates 1-3): 876200 M⁻¹ s⁻¹ and 975000 M⁻¹ s⁻¹ and 757000 M⁻¹ s⁻¹
Catalytic efficiency ([2]; Enzyme: F. prausnitzii, Fig. 3b, replicates 1-3): 373850 M⁻¹ s⁻¹ and 362000 M⁻¹ s⁻¹ and 260800 M⁻¹ s⁻¹
Catalytic efficiency ([2]; Enzyme: R. gnavus 3, Fig. 3b, replicates 1-3): 816300 M⁻¹ s⁻¹ and 891300 M⁻¹ s⁻¹ and 748300 M⁻¹ s⁻¹
Catalytic efficiency ([2]; Enzyme: R. hominis 2, Fig. 3b, replicates 1-3): 168600 M⁻¹ s⁻¹ and 249500 M⁻¹ s⁻¹ and 277800 M⁻¹ s⁻¹
Catalytic efficiency ([2]; Enzyme: R. hominis 3, Fig. 3b, replicates 1-3): 801500 M⁻¹ s⁻¹ and 763200 M⁻¹ s⁻¹ and 1075600 M⁻¹ s⁻¹
Catalytic efficiency ([2]; Enzyme: R. inulinvorans, Fig. 3b, replicates 1-3): 450800 M⁻¹ s⁻¹ and 617200 M⁻¹ s⁻¹ and 689000 M⁻¹ s⁻¹
Catalytic efficiency ([3]; Enzyme: Fp 2-L1 M362A): 344000 M⁻¹ s⁻¹ and 207500 M⁻¹ s⁻¹ and 364600 M⁻¹ s⁻¹
Catalytic efficiency ([3]; Enzyme: Fp 2-L1 M454A): 1202500 M⁻¹ s⁻¹ and 1255200 M⁻¹ s⁻¹ and 1243800 M⁻¹ s⁻¹
Catalytic efficiency ([3]; Enzyme: Fp 2-L1 M455A): 1203800 M⁻¹ s⁻¹ and 1137600 M⁻¹ s⁻¹ and 1168500 M⁻¹ s⁻¹
Catalytic efficiency ([3]; Enzyme: Fp 2-L1 Y479A): 0 M⁻¹ s⁻¹
Catalytic efficiency (Rh3 GUS mutants; Enzyme: Rh3 F406A): 147440 M⁻¹ s⁻¹ and 148640 M⁻¹ s⁻¹ and 151680 M⁻¹ s⁻¹
Catalytic efficiency (Rh3 GUS mutants; Enzyme: Rh3 L635STOP): 0 M⁻¹ s⁻¹
Catalytic efficiency (Rh3 GUS mutants; Enzyme: Rh3 Y430A): 0 M⁻¹ s⁻¹
